Assay results taken from patent US4241074A, “Prostaglandin analogues” (Beecham Group Limited, priority 1978, dated 1980).

Key:
[1] = system: 5-hydroxytryptamine induced bronchoconstriction; experiment: inhibition of 5-hydroxytryptamine induced bronchoconstriction in the anaesthetised, artificially respired guinea-pig (Konzett-Rossler preparation); assay type: in vivo; conditions: Cavia porcellus, iv, vs 5-hydroxytryptamine, read-out: Konzett-Rossler Test Ed50
From the text: (a) The Compounds were examined for their ability to inhibit 5-hydroxytryptamine induced bronchoconstriction in the anaesthetised, artificially respired guinea-pig (Konzett-Rossler preparation).

[2] = system: indomethacin induced gastric ulceration; experiment: inhibition of indomethacin induced gastric ulceration in the rat; assay type: in vivo
From the text: The compounds were examined for their ability to inhibit indomethacin induced gastric ulceration in the rat and the activities are shown in Table 2.

[3] = system: broncho-constriction induced by an histamine aerosol; experiment: protection of conscious guinea-pigs against broncho-constriction induced by an histamine aerosol (Herxheimer test); assay type: in vivo, guinea-pig
Procedure: (b) The Compounds were also examined for their ability to protect conscious guinea-pigs against broncho-constriction induced by an histamine aerosol (Herxheimer test). The Compounds were administered by aerosol.
The aerosol was produced in the following manner.
Water soluble Compounds were dissolved in normal saline at a concentration of […]. Water insoluble Compounds were dissolved in ethanol at a concentration of 10 μg/ml. These solutions were then diluted to the test concentrations with normal saline.

Row | Structure (SMILES) | ED50 [1] | % Inhibition of Damage ([2]; 100 mg/kg p.o.) | % Increase in pre-convulsive coughing time at a dose of 10 μg/ml ([3]; after 2 mins.) | further results
1 | CCCCCCC(C)(O)CCN1C(=O)N(C)C(=O)C1CCCCCCC(C)=O (stereo not shown) [Compound 9, 1-(3'-hydroxy-3'-methyl-n-nonyl)-3-methyl-5-(7"-oxo-n-octyl) hydantoin] | 67.5 µg/kg | – | – | –
2 | CCCCCCC(C)(O)CCN1CN(C)C(=O)C1CCCCCCCC(C)=O (stereo not shown) [Compound 3, 1-(3'-hydroxy-3'-methyl-n-nonyl)-3-methyl-5-(8"-oxo-n-nonyl)-4-imidazolidone] | – | 65% | – | –
3 | CCCCCCC(C)(O)CCN1C(=S)N(C)C(=O)C1CCCCCCCC(C)=O (stereo not shown) [Compound 2, 1-(3'-hydroxy-3'-methyl-n-nonyl)-3-methyl-5-(8"-oxo-n-nonyl)-2-thiohydantoin] | – | 100% | – | –
4 | CCCCCCC(C)(O)CCN1C(=O)N(C)C(=O)C1CCCCCCCC(C)=O (stereo not shown) [Compound 1, 1-(3'-hydroxy-3'-methyl-n-nonyl)-3-methyl-5-(8"-oxo-n-nonyl) hydantoin] | 1.4 µg/kg | 100% | – | % Inhibition of Damage ([2]; 25 mg/kg p.o.): 64%; % Inhibition of Damage ([2]; 50 mg/kg p.o.): 74%
5 | CC(=O)CCCCCCCC1C(=O)N(C)C(=O)N1CCC(C)(O)C1CCCCC1 (stereo not shown) [Compound 11, 1-(3'-hydroxy-3'-cyclohexyl-n-butyl)-3-methyl-5-(8"-oxo-n-nonyl) hydantoin] | 1 µg/kg | – | 140% | % Increase in pre-convulsive coughing time at a dose of 10 μg/ml ([3]; after 5 mins.): 23%
6 | CCCCCCC(C)(O)CCN1C(=O)N(C)C(=O)C1CC#CCCCCC(C)=O (stereo not shown) [Compound 6, 1-(3'-hydroxy-3'-methyl-n-nonyl)-3-methyl-5-(8"-oxo-non-2-ynyl) hydantoin] | – | – | 29% | % Increase in pre-convulsive coughing time at a dose of 10 μg/ml ([3]; after 5 mins.): 15%
7 | CCCCCCC(C)(O)CCN1C(=O)NC(=O)C1CCCCCCCC(C)=O (stereo not shown) [Compound 8, 1-(3'-hydroxy-3'-methyl-n-nonyl)-5-(8"-oxo-n-nonyl) hydantoin] | – | – | 81% | –
